Data on 3 molecules can be found in patent publication US6524789B1, “Human neuronal nicotinic acetylcholine receptor compositions and methods employing same” (Merck & Co., Inc., priority 1995, dated 2003).

By EC50 is commonly meant the midpoint of the concentration-response curve. A higher EC50 goes with weaker potency.

Assay [1] deals with PC12. Put plainly: 86Rb ion-flux assay, positive control cells PC12. Type of assay: cell-based. Conditions: Rattus norvegicus, PC-12, antagonist, 86Rb influx.
Description: The ^86Rb ion-flux assay is conducted as follows:
1. The night before the experiment, cells are plated at 2×10^6 per well (i.e., 2 ml per well) in a 6-well polylysine-coated plate.
2. The culture medium is decanted and the plate washed with 2 ml of assay buffer (50 mM HEPES, 260 mM sucrose, 5.4 mM KCl, 1.8 mM CaCl2, 0.8 mM MgSO4, 5.5 mM glucose) at room temperature.
3. The assay buffer is decanted and 1 ml of assay buffer, containing 3 μCi/ml ^86Rb, with 5 mM ouabain and agoinist or antagonist in a concentration to effect a maximum response, is added.
4. The plate is incubated on ice at 1° C. for 4 min.
5. The buffer is decanted into a waste container and each well was washed with 3 ml of assay buffer, followed by two washes of 2 ml each.
6. The cells are lysed with 2×0.5 ml of 0.2% SDS per well and transferred to a scintillation vial containing 5 ml of scintillation fluid.
7. The radioactivity contained in each vial 5 is measured and the data calculated.
Assay [2] relates to untransfected HEK cells. Conditions: fluo-3, 200 μM nicotine.
Description: HEK cells that are transiently or stably co-transfected with DNA encoding appropriate α and/or β subunits and α6 and β3 subunits are analyzed for expression of functional recombinant nAChR using the automated fluorescent indicator-based assay. The assay procedure is as follows. Untransfected HEK cells and HEK cells co-transfected with DNA encoding the appropriate α and β subunits are plated in the wells of a 96-well microtiter dish and loaded with fluo-3 by incubation for 2 hours at 20° C. in a medium containing 20 μM fluo-3, 0.2% Pluronic F-127 in HBS (125 mM NaCl, 5 mM KCl, 1.8 mM CaCl2, 0.62 mM MgSO4, 6 mM glucose, 20 mM HEPES, pH 7.4). The cells are then washed with assay buffer (i.e., HBS). The antagonist d-tubocurarine is added to some of the wells at a final concentration of 10 μM.
Assay [3] deals with T1, functional recombinant nAChR (Homo sapiens, UniProt Q15825).
T1 construct: A 1,743 bp EcoRI fragment, encoding a full-length nAChR α6 subunit, was isolated from KEα6.3; expressed in transfected cells; host or cells: HEK 293 cells, transiently or stably co-transfected
T1 sequence (Q15825 31-494): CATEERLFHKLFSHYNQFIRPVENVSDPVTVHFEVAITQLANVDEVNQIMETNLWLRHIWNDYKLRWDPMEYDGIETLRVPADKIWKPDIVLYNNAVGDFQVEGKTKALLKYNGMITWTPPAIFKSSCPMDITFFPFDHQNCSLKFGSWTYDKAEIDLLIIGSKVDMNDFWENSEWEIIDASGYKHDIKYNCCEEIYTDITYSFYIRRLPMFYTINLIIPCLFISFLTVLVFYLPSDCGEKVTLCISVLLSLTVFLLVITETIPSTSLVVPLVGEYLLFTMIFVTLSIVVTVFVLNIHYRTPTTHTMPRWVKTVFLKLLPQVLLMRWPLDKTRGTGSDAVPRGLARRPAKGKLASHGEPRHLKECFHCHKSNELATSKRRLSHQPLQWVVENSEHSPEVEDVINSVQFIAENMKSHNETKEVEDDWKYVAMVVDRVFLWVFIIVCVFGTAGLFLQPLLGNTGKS
T1 sequence (Q05901 25-458 partner limits assumed): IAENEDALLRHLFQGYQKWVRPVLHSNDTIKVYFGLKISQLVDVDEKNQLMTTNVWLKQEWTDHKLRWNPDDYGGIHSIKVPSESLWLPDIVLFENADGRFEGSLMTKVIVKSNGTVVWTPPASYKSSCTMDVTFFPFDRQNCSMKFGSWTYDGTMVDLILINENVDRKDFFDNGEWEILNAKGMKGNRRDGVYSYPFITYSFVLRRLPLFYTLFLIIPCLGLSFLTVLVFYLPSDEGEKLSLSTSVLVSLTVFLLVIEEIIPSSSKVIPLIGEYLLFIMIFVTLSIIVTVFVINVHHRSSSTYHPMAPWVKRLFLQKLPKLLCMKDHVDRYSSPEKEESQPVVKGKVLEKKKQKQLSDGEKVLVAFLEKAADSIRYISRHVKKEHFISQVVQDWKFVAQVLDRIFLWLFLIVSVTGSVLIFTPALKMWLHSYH
Type of assay: cell-based.
Excerpt: Activation of the ligand-gated nAChR by agonists leads to an influx of cations, including Ca^++, through the receptor channel. Ca^++ entry into the cell through the channel can induce release of calcium contained in intracellular stores. Monovalent cation entry into the cell through the channel can also result in an increase in cytoplasmic Ca^++ levels through depolarization of the membrane and subsequent activation of voltage-dependent calcium channels. Therefore, methods of detecting transient increases in intracellular calcium concentration can be applied to the analysis of functional nicotinic nAChR expression. One method for measuring intracellular calcium levels relies on calcium-sensitive fluorescent indicators.
Calcium-sensitive indicators, such as fluo-3 (Catalog No. F01241, Molecular Probes, Inc., Eugene, Oreg.), are available as acetoxymethyl esters which are membrane permeable. […] Interaction of the free indicator with calcium results in increased fluorescence of the indicator; therefore, an increase in the intracellular Ca^2+ concentration of cells containing the indicator can be expressed directly as an increase in fluorescence.
HEK cells that are transiently or stably co-transfected with DNA encoding appropriate α and/or β subunits and α6 and β3 subunits are analyzed for expression of functional recombinant nAChR using the automated fluorescent indicator-based assay. […]

For the molecule `CN1[C@@H]2CC[C@H]1C[C@@H](OC(=O)C(CO)c1ccccc1)C2` (stereo partly shown) [atropine], the EC50 in assay [1] stood at 12.5 µM. With `CN1CCCC1c1cccnc1` (stereo not shown) [nicotine], the “fluorescence after addition of nicotine” value in assay [2] was “does not change”; in assay [3] it was “increases dramatically”. As to `COc1cc2c3cc1Oc1cc(ccc1O)C[C@@H]1c4c(cc(OC)c(O)c4Oc4ccc(cc4)C[C@@H]3N(C)CC2)CC[N+]1(C)C` [d-tubocurarine], in assay [3] (co-transfected HEK cells, 10 μM d-tubocurarine, 200 μM nicotine), the “nicotine-stimulated increase in fluorescence in cells exposed to antagonist” value is on record as “not observed”.
